Measured values published in patent publication US4745101A, “Novel peptide having dentinal fluid transport-stimulating activity” (Teikoku Hormone Mfg. Co., Ltd., priority 1985, dated 1988).
Where no end group is shown, it is not given here.

Assay: Solubility
Format: physicochemical
Description: Soluble in water and physiological saline. Insoluble in acetone.

Solubility (in acetone): Insoluble | Solubility (in physiological saline): Soluble | Solubility (in water): Soluble
Sequence: GVIAWELQHNQPGRKDSTAG [Peptide of the invention]
